pIC50: −log10 of the molar value.
Key:
Assay type in all cases: functional
[1] = target: T1, Putative uncharacterized protein pk7 (Plasmodium falciparum, UniProt O96214); experiment: Final concentrations were 1 uM ATP, 2 mM DTT, 20 mM MgCl2, 2 mM MnCl2, 0.01% BSA, and 6 ug/ml PK7, in a buffer of 20 mM Tris-HCl (pH 7.5). The enzyme itself was the only substrate present (since autophosphorylation occurs); 100 uM 1NA-PP1 was used as a control inhibitor. Incubation time was 3 hours.
T1 sequence (O96214 whole entry): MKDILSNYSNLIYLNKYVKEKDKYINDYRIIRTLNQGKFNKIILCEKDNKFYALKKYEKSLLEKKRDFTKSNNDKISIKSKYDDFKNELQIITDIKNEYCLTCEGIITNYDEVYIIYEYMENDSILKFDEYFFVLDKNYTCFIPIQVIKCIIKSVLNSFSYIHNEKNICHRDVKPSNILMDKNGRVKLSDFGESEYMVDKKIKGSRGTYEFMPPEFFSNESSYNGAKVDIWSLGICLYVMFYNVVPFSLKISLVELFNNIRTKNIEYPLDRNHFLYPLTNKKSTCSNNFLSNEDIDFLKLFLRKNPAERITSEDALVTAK

[2] = target: T2, Mitogen-activated protein kinase (Plasmodium falciparum, UniProt Q25917); experiment: Final concentrations were 1 uM ATP, 0.5 mM DTT, 1 mM MgCl2, 0.5 mg/mL BSA, and 10 ug/ml MAP2 in a buffer of 50 mM HEPES (pH 7.0). 0.5 mg/mL histone III-S served as the substrate (13); 100 uM AMP-PNP, an ATP analog, was used as a control inhibitor. Incubation time was 4 hours.
T2 sequence (Q25917 whole entry): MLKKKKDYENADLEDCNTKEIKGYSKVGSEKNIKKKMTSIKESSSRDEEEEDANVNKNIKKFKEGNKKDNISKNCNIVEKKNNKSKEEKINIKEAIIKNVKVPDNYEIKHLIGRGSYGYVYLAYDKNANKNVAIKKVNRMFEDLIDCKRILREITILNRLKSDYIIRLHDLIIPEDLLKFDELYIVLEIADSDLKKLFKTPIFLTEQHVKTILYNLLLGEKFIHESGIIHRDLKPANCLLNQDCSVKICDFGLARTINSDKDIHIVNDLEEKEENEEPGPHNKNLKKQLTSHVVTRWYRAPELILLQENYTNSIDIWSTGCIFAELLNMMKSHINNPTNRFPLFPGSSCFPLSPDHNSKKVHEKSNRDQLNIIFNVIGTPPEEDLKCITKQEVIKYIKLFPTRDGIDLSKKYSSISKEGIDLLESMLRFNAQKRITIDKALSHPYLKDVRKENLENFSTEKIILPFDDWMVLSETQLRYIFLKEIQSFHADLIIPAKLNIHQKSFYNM

Proline--tRNA ligase = target: T3, Proline--tRNA ligase (Plasmodium falciparum (isolate 3D7), UniProt Q8I5R7); experiment: MMV: ProRS recombinant Plasmodium falciparum Prolyl-tRNA-synthetase, assay with yeast tRNA, ATP, and proline and 3 uM MMV malaria box compound, assay read out with kinase glo as % inhibition.
T3 sequence (Q8I5R7 whole entry): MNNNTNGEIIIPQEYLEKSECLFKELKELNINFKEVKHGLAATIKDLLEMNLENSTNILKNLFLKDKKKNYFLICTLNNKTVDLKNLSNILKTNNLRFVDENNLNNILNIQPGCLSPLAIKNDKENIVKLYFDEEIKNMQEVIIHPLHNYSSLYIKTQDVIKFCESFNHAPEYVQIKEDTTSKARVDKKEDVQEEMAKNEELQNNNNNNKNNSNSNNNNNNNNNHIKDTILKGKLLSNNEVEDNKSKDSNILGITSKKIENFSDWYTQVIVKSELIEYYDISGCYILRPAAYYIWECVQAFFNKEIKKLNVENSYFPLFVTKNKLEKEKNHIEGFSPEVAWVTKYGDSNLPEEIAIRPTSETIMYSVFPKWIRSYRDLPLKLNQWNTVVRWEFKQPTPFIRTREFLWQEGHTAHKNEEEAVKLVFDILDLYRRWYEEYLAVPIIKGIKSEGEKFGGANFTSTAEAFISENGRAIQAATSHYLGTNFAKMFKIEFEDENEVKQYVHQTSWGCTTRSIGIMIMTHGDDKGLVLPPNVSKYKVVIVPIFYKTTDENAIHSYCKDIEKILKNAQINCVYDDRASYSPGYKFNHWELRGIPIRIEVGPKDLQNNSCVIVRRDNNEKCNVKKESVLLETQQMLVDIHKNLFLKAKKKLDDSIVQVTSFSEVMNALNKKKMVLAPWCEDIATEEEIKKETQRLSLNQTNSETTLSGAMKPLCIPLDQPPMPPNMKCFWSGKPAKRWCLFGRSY

Lysine--tRNA ligase = Lysine--tRNA ligase (Plasmodium falciparum (isolate 3D7), UniProt Q8IDJ8); experiment: MMV: KRS recombinant Plasmodium falciparum Lysyl-tRNA-synthetase, assay with yeast tRNA, ATP, and lysine and 3 uM MMV malaria box compound, assay read out with kinase glo as % inhibition.
[3] = target: T4, Calcium-dependent protein kinase 4 (Plasmodium falciparum (isolate 3D7), UniProt Q8IBS5); experiment: MMV: CDPK4 Protein kinase inhibition assay using recombinant PfCDPK4, syntide2 peptide substrate, ATP and KinaseGlo to measure % inhibition at 1 uM MMV box compound.
T4 sequence (Q8IBS5 whole entry): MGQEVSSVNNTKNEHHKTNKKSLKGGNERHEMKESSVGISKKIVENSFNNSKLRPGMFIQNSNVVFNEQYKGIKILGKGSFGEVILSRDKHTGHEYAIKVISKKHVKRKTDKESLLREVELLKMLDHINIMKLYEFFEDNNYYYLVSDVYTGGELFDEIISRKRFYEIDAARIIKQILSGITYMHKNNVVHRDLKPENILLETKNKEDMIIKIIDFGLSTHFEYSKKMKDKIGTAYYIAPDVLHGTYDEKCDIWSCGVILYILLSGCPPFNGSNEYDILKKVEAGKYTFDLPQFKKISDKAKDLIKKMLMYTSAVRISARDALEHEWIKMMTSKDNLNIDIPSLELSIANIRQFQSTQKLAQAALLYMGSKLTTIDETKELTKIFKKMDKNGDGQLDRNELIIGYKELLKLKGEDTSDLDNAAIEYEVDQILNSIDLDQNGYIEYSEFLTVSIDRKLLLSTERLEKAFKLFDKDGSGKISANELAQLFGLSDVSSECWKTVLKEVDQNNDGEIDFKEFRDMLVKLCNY

[4] = target: Calcium-dependent protein kinase 1 (Plasmodium falciparum, UniProt P62344); experiment: MMV: CDPK1 Protein kinase inhibition assay using recombinant PfCDPK1, syntide 2 peptide substrate, ATP and KinaseGlo to measure % inhibition at 1 uM MMV box compound.
[5] = target: T5, Cdk-related protein kinase 6 (Plasmodium falciparum, UniProt O77239); experiment: Final concentrations were 1.5 uM ATP, 5 mM MnCl2, and 15 ug/ml PK6 in a buffer of 100 mM Tris-HCl (pH 7.5). 50 ug/mL MBP was provided as the substrate; 10 uM staurosporine was used as a control inhibitor. Incubation time was 3 hours and 40 minutes.The catalytic activity of each kinase was considered proportional to ATP consumed, as determined from measurements of residual [ATP] with the luciferase-based reagent Kinase-Glo (Promega) following incubation. Luminescence (proportional to residual [ATP]) was measured on the plate readers FLx800 (BioTek Instruments, Winooski, VT, USA) and MicroBeta2.
T5 sequence (O77239 whole entry): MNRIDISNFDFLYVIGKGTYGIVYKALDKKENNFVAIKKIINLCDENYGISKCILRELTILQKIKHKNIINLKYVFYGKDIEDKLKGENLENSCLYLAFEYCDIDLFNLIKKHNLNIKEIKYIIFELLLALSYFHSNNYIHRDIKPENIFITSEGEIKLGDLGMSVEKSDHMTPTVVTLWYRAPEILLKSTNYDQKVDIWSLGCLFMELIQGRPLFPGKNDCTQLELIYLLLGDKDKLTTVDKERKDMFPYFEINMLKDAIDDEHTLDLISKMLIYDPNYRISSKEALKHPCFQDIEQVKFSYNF

Chain of Calcium-dependent protein kinase 1 (P62344 whole entry): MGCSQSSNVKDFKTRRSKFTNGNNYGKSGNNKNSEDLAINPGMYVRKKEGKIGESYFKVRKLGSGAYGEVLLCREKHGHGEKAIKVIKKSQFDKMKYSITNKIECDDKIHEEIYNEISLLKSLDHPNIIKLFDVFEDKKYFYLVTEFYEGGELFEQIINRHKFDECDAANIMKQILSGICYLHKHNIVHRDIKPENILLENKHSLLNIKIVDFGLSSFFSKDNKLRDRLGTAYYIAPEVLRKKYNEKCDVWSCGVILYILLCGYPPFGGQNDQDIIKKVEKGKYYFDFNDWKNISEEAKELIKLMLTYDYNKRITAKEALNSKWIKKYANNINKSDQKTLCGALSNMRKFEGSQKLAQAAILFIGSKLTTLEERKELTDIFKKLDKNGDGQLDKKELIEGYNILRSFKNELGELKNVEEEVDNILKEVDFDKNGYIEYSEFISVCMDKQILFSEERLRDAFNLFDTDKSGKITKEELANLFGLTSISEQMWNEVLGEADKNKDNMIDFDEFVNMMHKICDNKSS
Chain of Lysine--tRNA ligase (Q8IDJ8 whole entry): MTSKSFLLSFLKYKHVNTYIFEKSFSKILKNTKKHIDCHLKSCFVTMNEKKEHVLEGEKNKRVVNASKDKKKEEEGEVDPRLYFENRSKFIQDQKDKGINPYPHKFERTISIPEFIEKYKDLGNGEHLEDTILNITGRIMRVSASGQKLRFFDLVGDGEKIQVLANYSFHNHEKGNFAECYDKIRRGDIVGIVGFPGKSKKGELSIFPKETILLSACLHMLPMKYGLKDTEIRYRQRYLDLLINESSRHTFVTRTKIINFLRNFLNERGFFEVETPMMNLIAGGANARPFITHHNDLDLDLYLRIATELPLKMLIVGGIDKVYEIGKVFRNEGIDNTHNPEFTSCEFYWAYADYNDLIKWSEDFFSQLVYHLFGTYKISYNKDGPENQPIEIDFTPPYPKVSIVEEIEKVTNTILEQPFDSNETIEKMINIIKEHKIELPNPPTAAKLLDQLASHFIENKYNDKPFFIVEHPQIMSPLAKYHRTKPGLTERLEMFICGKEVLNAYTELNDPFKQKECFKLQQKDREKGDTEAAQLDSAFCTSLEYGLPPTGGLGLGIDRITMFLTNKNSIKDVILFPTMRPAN

Structure (SMILES)	pIC50 [1]	pIC50 [2]	pIC50 (Proline--tRNA ligase)	pIC50 (Lysine--tRNA ligase)	pIC50 [3]	pIC50 [4]	pIC50 [5]
COc1ccc(C2c3ccc4ccccc4c3Oc3ncn(CCCN(C)C)c(=N)c32)cc1 (configuration not stated)	< 6.00	< 6.00	< 5.60	< 5.60	< 6.00	< 6.00	< 6.00
COc1ccc(/C=C2/SC(=Nc3ccccc3)NC2=O)cc1	< 6.00	< 6.00	< 5.60	< 5.60	< 6.00	< 6.00	< 6.00
CCOC(=O)c1c(C)n(-c2ccccc2)c2ccc(OC(=O)c3cc(OC)c(OC)c(OC)c3)cc12	< 6.00	< 6.00	< 5.60	< 5.60	< 6.00	< 6.00	< 6.00
N#Cc1nc(Cc2cccc3ccccc23)oc1N1CCN(C(c2ccccc2)c2ccccc2)CC1	< 6.00	< 6.00	< 5.60	< 5.60	< 6.00	< 6.00	< 6.00
Cc1ccc(C(=O)c2oc3ccc4c(C)cc(=O)oc4c3c2C)cc1	< 6.00	< 6.00	< 5.60	< 5.60	< 6.00	< 6.00	< 6.00
CCCCCCc1cc2cc(-c3csc(C=Cc4ccccc4)n3)c(=O)oc2cc1O	< 6.00	< 6.00	< 5.60	< 5.60	< 6.00	< 6.00	< 6.00
CC(Oc1ccc(NC(=O)c2cccs2)cc1)C(=O)c1ccc(Cl)cc1 (configuration not stated)	< 6.00	< 6.00	< 5.60	< 5.60	< 6.00	< 6.00	< 6.00
COc1ccc(CNC(=O)c2cc3c(=O)n4ccccc4nc3n(CCc3ccccc3)c2=N)cc1	< 6.00	< 6.00	< 5.60	< 5.60	< 6.00	< 6.00	< 6.00
Cn1c(=O)n(C)c2cc(CNCCNc3ccnc4cc(Cl)ccc34)ccc21	< 6.00	< 6.00	< 5.60	< 5.60	< 6.00	< 6.00	< 6.00
CCOc1ccc2nc(C)cc(Nc3ccc(N(C)C)cc3)c2c1	< 6.00	< 6.00	< 5.60	< 5.60	< 6.00	< 6.00	< 6.00
COc1ccc(C=C2SC(Nc3ccc(F)cc3)=NC2=O)c(OC)c1	< 6.00	< 6.00	< 5.60	< 5.60	< 6.00	< 6.00	< 6.00
O=C(Nc1ccc(-c2nc3cc(NC(=O)c4ccc(Cl)cc4)ccc3[nH]2)cc1)c1ccc(Cl)cc1	< 6.00	< 6.00	< 5.60	< 5.60	< 6.00	< 6.00	< 6.00
COc1ccccc1C(=O)ON=C(N)Cc1cccc2ccccc12	< 6.00	< 6.00	< 5.60	< 5.60	< 6.00	< 6.00	< 6.00
c1ccc(CNc2nc(Nc3ccccc3)nc3ccccc23)cc1	< 6.00	< 6.00	< 5.60	< 5.60	< 6.00	< 6.00	< 6.00
CCOc1ccc2nc(C)cc(Nc3ccc(Br)cc3)c2c1	< 6.00	< 6.00	< 5.60	< 5.60	< 6.00	< 6.00	< 6.00
COc1cc2c3cc1Oc1c(OC)c(OC)cc4c1C(Cc1ccc(O)c(c1)Oc1ccc(cc1)CC3N(C)CC2)N(C)CC4 (configuration not stated)	< 6.00	< 6.00	< 5.60	< 5.60	< 6.00	< 6.00	< 6.00
COc1ccc2sc(N(Cc3cccnc3)C(=O)c3ccc(C#N)cc3)nc2c1	< 6.00	< 6.00	< 5.60	< 5.60	< 6.00	< 6.00	< 6.00
CC1CC2=C(CC1CNCCCN(C)C)C(C)(C)CCC2 (configuration not stated)	< 6.00	< 6.00	< 5.60	< 5.60	< 6.00	< 6.00	< 6.00
CCOC(=O)c1cnc2ccc(OC)cc2c1NCc1ccccc1	< 6.00	< 6.00	< 5.60	< 5.60	< 6.00	< 6.00	< 6.00
CCOC(=O)C1=CN(C)C=C(C(=O)OCC)C1c1cc(Br)c(OCC)c(OC)c1	< 6.00	< 6.00	< 5.60	< 5.60	< 6.00	< 6.00	< 6.00
CCCCc1c(CCC)c(=N)c2ccccc2n1C	< 6.00	< 6.00	< 5.60	< 5.60	< 6.00	< 6.00	< 6.00

Source: ChEMBL document CHEMBL3301562, “MMV Box screening against Plasmodium falciparum protein kinases and aminoacyl tRNA synthetases”
